Results: US9790235B2, “MK2 inhibitors and uses thereof” (Celgene CAR LLC, priority 2014, dated 2017)
Like-named read-outs stand apart in the source and are kept apart here.

What was measured:
MK2 [1] = molecular target: T1, MK2 (Homo sapiens (Human), UniProt P49137); test: MK2 cellular assay, total and phospho-Hsp27 (Serine 78) by MSD ELISA (Thp1); assay type: cell-based
Summary of the method: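 PMA-differentiated (10 ng/mL, 72 h) Thp-1 cells were pretreated with compound (top 3000 nM) for 1 h at 37 °C, then stimulated with 50 ng/mL LPS for 45 min. Lysate phospho-Hsp27 (Ser78) and total Hsp27 were read by MSD electrochemiluminescence ELISA, and the value is expressed as percent phospho/total signal per well.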

[2] = molecular target: p38α activated, mitogen-activated protein kinase-activated protein kinase 2 (MAPKAP-K2 or MK2) enzyme (Homo sapiens (Human), UniProt P49137); test: MK2 Omnia continuous-read kinase assay for compound potency; assay type: biochemical
Chain of p38α activated, mitogen-activated protein kinase-activated protein kinase 2 (MAPKAP-K2 or MK2) enzyme (P49137 whole entry): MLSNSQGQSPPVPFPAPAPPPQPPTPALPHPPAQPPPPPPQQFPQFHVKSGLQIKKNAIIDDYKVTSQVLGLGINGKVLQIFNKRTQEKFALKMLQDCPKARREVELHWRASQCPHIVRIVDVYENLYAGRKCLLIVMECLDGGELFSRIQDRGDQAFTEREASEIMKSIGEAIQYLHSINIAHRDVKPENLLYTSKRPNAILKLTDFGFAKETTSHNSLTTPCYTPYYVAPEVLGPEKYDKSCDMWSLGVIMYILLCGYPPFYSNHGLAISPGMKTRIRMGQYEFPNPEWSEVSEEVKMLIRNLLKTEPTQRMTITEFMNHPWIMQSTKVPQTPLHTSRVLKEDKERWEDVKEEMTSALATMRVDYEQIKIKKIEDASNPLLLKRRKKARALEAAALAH
Summary of the method: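 Continuous fluorescence read (λex360/λem485) with 0.4 nM p38α-activated MK2, 10 μM ATP (apparent KM) and 10 μM S/T3-Sox peptide, monitored over 120 min at room temperature. Background-corrected initial slopes gave % inhibition and IC50 with Hill slope; exponential fits gave kobs, yielding apparent kinact/KI.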

MK2 [3] = molecular target: T1, MK2
Experimental: Aliquots of the resulting mixture (6 μL each) were diluted with 0.2% trifluoroacetic acid (TFA, 10 μL) prior to micro C4 ZipTipping directly onto the MALDI target using sinapinic acid as the desorption matrix (10 mg/ml in 0.1% TFA:acetonitrile 50:50, v/v). The centroid mass of the target protein in the control sample was compared with the centroid mass of the target protein incubated with compound. A shift in the centroid mass of the treated protein compared to the untreated protein was divided by the molecular weight of the compound. This number corresponds to the percentage of modified protein (a measure of the proportion of total target protein covalently bound to the test compound) after one hour incubation.
3 μL of magnetic Ni-NTA beads were added to the 6 μL aliquots of sample, washed, eluted with 0.2% trifluoroacetic acid (TFA, 2 μL), and spotted directly onto the MALDI target using sinapinic acid as the desorption matrix (10 mg/ml in 0.1% TFA:acetonitrile 50:50, v/v). The centroid mass of the target protein in the control sample was compared with the centroid mass of the target protein incubated with compound. A shift in the centroid mass of the treated protein compared to the untreated protein was divided by the molecular weight of the compound. This number corresponds to the percentage of modified protein (a measure of the proportion of total target protein covalently bound to the test compound) after one hour incubation.

[4] = percentage of modified protein after 60 minutes at room temperature, 10-fold excess of compound, MALDI (I-1 to I-50), magnetic bead MALDI (I-51 to I-129)
[5] = Thp-1 cells, 1 hour compound, 50 ng/mL LPS 45 minutes, p-HSP27 (Ser78)/total HSP27, read-out: pHSP27 signaling EC50
[6] = [MK-2]=0.4 nM, [ATP]=10 μM, [ST3-Sox]=10 μM, read-out: MK2 IC50
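Wherever Mass Modification is given: covalent binding read from centroid mass shift of compound-treated versus untreated intact MK2, shift divided by compound molecular weight, giving fraction of total protein bound.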

T1 sequence (P49137 whole entry): as above

Compound	EC50 (MK2 [1]) [nM]	IC50 [2] [nM]	Mass Modification (MK2 [3]; [4])	EC50 (MK2 [1]; [5]) [nM]	IC50 [2, 6] [nM]	IC50 ([2]; read-out: MK2 IC50) [nM]	Mass Modification (MK2 [3])
C[C@@H]1CNc2c(sc3ccc4nc(Oc5nc(Cl)ncc5CN5C6CCC5COC6)ccc4c23)C(=O)N1 [I-114, (R)-3-((5-((3-oxa-8-azabicyclo[3.2.1]octan-8-yl)methyl)-2-chloropyrimidin-4-yl)oxy)-10-methyl-9,10,11,12-tetrahydro-8H-[1,4]diazepino[5′,6′:4,5]thieno[3,2-f]quinolin-8-one]	< 100	101 to 500	E (mass modification of ≧70%)	–	–	–	–
C[C@@H]1CNc2c(sc3ccc4nc(Oc5nc(Cl)ncc5CN5C[C@@H](C)N[C@@H](C)C5)ccc4c23)C(=O)N1 [I-115, (R)-3-((2-chloro-5-(((3R,5S)-3,5-dimethylpiperazin-1-yl)methyl)pyrimidin-4-yl)oxy)-10-methyl-9,10,11,12-tetrahydro-8H-[1,4]diazepino[5′,6′:4,5]thieno[3,2-f]quinolin-8-one]	–	–	E (mass modification of ≧70%)	> 1000	101 to 500	–	–
C[C@@H]1CNc2c(sc3ccc4nc(Oc5nc(Cl)ncc5Br)ccc4c23)C(=O)N1 [I-116, (R)-3-((5-bromo-2-chloropyrimidin-4-yl)oxy)-10-methyl-9,10,11,12-tetrahydro-8H-[1,4]diazepino[5′,6′:4,5]thieno[3,2-f]quinolin-8-one]	–	–	E (mass modification of ≧70%)	< 100	< 100	–	–
C[C@@H]1CNc2c(sc3ccc4nc(Oc5cc(CN(C)C(C)(C)C)nc(Cl)n5)ccc4c23)C(=O)N1 [I-118, (R)-3-((6-((tert-butyl(methyl)amino)methyl)-2-chloropyrimidin-4-yl)oxy)-10-methyl-9,10,11,12-tetrahydro-8H-[1,4]diazepino[5′,6′:4,5]thieno[3,2-f]quinolin-8-one]	–	–	E (mass modification of ≧70%)	101 to 500	501 to 999	–	–
C[C@@H]1CNc2c(sc3ccc4nc(Oc5nc(F)nc6c5COC6)ccc4c23)C(=O)N1 [I-119, (R)-3-((2-fluoro-5,7-dihydrofuro[3,4-d]pyrimidin-4-yl)oxy)-10-methyl-9,10,11,12-tetrahydro-8H-[1,4]diazepino[5′,6′:4,5]thieno[3,2-f]quinolin-8-one]	–	–	F (mass modification of 31-69%)	< 100	< 100	–	–
C[C@@H]1CNc2c(sc3ccc4nc(Oc5nc(Cl)ncc5C5=CCN(C)CC5)ccc4c23)C(=O)N1 [I-122]	–	–	E (mass modification of ≧70%)	101 to 500	< 100	–	–
C[C@@H]1CNc2c(sc3ccc4nc(Oc5nc(Cl)ncc5C5=CCOCC5)ccc4c23)C(=O)N1 [I-124, (R)-3-((2-chloro-5-(3,6-dihydro-2H-pyran-4-yl)pyrimidin-4-yl)oxy)-10-methyl-9,10,11,12-tetrahydro-8H-[1,4]diazepino[5′,6′:4,5]thieno[3,2-f]quinolin-8-one]	–	–	E (mass modification of ≧70%)	101 to 500	< 100	–	–
C[C@@H]1CNc2c(sc3ccc4nc(Oc5nc(Cl)nc6c5CN(C)CC6)ccc4c23)C(=O)N1 [I-126, (R)-3-((2-chloro-6-methyl-5,6,7,8-tetrahydropyrido[4,3-d]pyrimidin-4-yl)oxy)-10-methyl-9,10,11,12-tetrahydro-8H-[1,4]diazepino[5′,6′:4,5]thieno[3,2-f]quinolin-8-one]	–	–	–	< 100	–	< 100	E (key: E: mass modification of ≧70%; F: mass modification of 31-69%; G: mass modification ≦30%)
C[C@@H]1CNc2c(sc3ccc4nc(Oc5nc(Cl)ncc5CN5CCC(OCCF)CC5)ccc4c23)C(=O)N1 [I-131, (R)-3-((2-chloro-5-((4-(2-fluoroethoxy)piperidin-1-yl)methyl)pyrimidin-4-yl)oxy)-10-methyl-9,10,11,12-tetrahydro-8H-[1,4]diazepino[5′,6′:4,5]thieno[3,2-f]quinolin-8-one]	–	–	E (mass modification of ≧70%)	< 100	< 100	–	–
